pIC50: −log10 of the molar value.

For one assay, the target named is T1, Full-length human MNK2 (Homo sapiens, UniProt Q9HBH9, T379D).
T1 construct: GST (N); purchased Carna Biosciences 02-146; host or cells: baculovirus expression system
Briefly: MNK2 biochemical IC50 assay (Caliper Mobility Shift Assay).

A further assay deals with FER (Homo sapiens, UniProt P16591). As to the kind of experiment: Kinase selectivity screen FER. The note with it: read-out: % inhibition of FER.
For the next assay, the target named is ALK (Homo sapiens, UniProt Q9UM73). Briefly: Kinase selectivity screen ALK. As to conditions: read-out: % inhibition of ALK.
Sequence of ALK (Q9UM73 19-1620, species assumed): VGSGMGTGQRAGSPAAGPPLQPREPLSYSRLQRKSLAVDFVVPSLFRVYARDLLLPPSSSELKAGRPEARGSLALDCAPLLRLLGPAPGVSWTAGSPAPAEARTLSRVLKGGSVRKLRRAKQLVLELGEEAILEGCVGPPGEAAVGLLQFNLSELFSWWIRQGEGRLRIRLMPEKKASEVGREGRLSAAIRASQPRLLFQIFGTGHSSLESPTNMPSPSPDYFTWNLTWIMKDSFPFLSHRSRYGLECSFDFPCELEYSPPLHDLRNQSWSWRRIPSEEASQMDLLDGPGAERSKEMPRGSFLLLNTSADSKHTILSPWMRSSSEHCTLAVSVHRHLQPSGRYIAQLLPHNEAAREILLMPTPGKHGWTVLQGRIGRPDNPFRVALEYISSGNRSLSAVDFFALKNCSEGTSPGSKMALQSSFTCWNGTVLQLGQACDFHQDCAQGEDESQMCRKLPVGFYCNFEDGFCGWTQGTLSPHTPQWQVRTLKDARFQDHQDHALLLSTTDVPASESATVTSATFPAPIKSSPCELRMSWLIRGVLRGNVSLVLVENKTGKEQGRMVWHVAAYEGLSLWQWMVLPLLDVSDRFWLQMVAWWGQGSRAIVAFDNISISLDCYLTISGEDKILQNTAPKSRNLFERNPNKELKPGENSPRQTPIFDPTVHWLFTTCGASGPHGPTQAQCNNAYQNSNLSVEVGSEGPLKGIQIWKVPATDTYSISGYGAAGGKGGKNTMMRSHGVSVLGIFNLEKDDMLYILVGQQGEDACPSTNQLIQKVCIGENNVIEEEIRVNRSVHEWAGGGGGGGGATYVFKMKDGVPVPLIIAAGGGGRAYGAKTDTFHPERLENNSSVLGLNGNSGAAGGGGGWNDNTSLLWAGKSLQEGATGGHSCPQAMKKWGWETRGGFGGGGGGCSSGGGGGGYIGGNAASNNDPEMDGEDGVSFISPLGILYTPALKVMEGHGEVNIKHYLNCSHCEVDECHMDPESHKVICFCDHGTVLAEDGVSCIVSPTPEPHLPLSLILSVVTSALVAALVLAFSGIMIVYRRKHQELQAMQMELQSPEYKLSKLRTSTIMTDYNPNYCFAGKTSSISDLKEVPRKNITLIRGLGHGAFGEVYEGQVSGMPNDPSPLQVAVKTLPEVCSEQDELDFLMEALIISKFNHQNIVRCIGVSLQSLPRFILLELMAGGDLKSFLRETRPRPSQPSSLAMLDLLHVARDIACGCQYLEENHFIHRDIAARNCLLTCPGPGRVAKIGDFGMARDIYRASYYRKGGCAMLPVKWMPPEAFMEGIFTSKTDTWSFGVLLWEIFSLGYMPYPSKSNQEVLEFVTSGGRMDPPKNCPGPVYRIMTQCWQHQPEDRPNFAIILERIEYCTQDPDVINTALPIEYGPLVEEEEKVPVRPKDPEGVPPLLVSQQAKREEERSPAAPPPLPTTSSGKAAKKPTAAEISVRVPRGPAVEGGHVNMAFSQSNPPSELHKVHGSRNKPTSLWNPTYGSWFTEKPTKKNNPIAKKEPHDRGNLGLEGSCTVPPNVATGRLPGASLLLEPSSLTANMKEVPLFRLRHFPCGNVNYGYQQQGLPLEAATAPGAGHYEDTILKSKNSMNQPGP
A further assay has as its target YES1 (Homo sapiens, UniProt P07947). Briefly: Kinase selectivity screen YES1. As to conditions: read-out: % inhibition of YES1.
A further assay deals with PTK2 (Homo sapiens, UniProt Q05397). As to the kind of experiment: Kinase selectivity screen PTK2. The note with it: read-out: % inhibition of PTK2.
Another assay has as its target EGFR (Homo sapiens, UniProt P00533). Briefly: Kinase selectivity screen EGFR. The note with it: read-out: % inhibition of EGFR.
The target of the next assay is FGFR1 (Homo sapiens, UniProt P11362). Briefly: Kinase selectivity screen FGFR1. As to conditions: read-out: % inhibition of FGFR1.
A further assay deals with NTRK1 (Homo sapiens, UniProt P04629). Briefly: Kinase selectivity screen NTRK1. The note with it: read-out: % inhibition of NTRK1.
Sequence of NTRK1 (P04629 33-796, species assumed): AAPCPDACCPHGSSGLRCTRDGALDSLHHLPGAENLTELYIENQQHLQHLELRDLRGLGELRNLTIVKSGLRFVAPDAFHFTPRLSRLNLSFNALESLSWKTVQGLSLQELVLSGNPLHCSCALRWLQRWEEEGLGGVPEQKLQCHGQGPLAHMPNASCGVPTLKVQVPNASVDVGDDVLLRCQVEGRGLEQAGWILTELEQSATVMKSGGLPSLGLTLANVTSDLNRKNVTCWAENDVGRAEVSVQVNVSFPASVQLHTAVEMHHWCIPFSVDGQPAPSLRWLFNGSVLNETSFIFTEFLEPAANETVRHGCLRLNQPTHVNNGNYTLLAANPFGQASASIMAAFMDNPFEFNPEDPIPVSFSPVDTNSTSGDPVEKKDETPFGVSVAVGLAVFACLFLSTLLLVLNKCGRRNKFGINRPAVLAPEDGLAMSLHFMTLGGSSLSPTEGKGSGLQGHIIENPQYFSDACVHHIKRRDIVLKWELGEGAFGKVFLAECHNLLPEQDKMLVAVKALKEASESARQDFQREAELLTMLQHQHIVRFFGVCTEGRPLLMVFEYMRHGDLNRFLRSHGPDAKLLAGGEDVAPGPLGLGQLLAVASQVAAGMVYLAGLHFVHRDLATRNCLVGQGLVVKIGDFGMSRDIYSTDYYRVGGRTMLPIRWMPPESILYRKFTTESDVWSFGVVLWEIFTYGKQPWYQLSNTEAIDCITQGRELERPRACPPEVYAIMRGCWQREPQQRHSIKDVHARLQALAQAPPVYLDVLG
The next assay deals with T2, PIP4K2A (Homo sapiens, UniProt P48426).
T2 sequence (P48426 1-406): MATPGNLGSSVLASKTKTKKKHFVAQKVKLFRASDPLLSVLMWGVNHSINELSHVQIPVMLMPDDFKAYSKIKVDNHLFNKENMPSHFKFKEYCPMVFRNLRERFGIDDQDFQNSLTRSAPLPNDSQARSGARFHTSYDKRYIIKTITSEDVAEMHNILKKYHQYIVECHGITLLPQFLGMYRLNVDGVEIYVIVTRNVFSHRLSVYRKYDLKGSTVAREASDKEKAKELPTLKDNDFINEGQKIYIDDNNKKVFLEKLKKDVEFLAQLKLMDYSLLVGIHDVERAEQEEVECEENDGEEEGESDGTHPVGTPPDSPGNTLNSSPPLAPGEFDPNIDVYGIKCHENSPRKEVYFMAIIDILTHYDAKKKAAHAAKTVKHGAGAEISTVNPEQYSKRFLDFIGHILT
As to the kind of experiment: Kinase selectivity screen PIP4K2A. As to conditions: read-out: % inhibition of PIP4K2A.

Sequence of FER (P16591 whole entry, species assumed): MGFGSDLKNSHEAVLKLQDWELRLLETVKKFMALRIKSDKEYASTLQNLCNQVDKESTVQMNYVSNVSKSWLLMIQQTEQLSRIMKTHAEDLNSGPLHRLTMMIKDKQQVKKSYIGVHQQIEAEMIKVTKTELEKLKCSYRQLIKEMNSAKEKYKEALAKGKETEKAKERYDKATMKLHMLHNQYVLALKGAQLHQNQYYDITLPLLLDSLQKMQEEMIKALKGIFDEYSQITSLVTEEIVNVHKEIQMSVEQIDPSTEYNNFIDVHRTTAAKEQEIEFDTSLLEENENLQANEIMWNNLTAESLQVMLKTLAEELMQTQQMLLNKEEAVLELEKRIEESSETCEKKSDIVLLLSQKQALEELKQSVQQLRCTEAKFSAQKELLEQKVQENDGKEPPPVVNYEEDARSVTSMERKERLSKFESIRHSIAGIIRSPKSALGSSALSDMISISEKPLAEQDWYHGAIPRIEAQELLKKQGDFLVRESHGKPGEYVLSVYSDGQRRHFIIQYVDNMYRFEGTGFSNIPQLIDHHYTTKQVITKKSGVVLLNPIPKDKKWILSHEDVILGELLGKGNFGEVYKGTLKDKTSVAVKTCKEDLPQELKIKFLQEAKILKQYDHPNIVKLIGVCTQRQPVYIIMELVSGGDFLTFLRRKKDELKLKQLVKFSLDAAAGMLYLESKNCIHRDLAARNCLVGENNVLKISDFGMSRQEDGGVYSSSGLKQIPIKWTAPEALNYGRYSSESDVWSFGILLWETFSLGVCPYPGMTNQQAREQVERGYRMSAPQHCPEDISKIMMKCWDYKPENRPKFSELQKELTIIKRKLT
Sequence of YES1 (P07947 whole entry, species assumed): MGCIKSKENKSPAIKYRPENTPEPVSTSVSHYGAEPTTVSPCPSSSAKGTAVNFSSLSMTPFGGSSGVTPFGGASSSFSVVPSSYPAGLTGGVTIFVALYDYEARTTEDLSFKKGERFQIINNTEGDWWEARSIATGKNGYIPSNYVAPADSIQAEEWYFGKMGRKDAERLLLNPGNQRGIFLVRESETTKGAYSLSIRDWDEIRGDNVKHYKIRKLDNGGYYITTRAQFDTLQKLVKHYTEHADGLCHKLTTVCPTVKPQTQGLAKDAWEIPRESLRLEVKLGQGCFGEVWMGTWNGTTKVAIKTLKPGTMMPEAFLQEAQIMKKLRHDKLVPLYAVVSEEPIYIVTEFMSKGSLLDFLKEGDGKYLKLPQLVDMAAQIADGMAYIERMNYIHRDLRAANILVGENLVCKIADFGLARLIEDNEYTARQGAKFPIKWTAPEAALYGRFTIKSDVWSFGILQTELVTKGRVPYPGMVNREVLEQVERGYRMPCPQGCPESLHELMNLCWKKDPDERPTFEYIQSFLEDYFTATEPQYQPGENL
Sequence of EGFR (P00533 25-1210): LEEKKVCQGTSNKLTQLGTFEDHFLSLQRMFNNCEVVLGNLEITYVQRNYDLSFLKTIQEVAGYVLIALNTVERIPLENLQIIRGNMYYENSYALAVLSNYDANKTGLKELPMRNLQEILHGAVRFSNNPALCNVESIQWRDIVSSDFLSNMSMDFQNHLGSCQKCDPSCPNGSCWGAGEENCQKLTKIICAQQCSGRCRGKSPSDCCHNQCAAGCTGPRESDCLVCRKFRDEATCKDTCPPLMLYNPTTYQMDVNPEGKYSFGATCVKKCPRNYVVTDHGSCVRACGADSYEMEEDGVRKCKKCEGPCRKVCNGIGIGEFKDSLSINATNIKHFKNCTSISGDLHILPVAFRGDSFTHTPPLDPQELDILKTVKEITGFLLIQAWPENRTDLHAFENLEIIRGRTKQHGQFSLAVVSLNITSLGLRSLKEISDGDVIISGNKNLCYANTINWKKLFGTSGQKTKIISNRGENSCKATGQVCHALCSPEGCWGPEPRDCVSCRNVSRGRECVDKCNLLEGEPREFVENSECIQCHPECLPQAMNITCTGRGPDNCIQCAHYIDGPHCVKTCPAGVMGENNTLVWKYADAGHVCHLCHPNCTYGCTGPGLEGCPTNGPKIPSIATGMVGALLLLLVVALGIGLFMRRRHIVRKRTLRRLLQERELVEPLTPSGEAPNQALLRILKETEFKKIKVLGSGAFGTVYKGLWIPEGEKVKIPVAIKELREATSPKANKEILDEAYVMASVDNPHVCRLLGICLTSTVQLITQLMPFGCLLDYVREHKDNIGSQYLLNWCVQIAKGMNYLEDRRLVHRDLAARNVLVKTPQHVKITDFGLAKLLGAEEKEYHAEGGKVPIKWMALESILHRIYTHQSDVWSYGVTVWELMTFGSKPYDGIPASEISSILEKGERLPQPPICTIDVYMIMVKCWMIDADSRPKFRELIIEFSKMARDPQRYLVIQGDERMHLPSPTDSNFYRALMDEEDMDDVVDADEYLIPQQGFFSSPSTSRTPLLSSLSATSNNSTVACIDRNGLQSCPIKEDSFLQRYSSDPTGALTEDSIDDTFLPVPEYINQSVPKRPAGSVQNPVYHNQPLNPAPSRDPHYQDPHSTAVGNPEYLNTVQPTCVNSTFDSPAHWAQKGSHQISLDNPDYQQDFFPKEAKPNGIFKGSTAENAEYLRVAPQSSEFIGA

With `O=C(NCC1CCNCC1)c1nc2c(N3CCc4cc(F)ccc43)ncnc2s1` [Example 58, 7-(5-fluoroindolin-1-yl)-N-(4-piperidylmethyl)thiazolo[5,4-d]pyrimidine-2-carboxamide], the negative-log IC50 (pIC50) at Full-length human MNK2 is 8.40. For the same compound, the inhibition at 1 µM on FER turned out to be 0%; on ALK it was 7%; at YES1, 14%; on PTK2, 0%; at EGFR, 0%; at FGFR1, 0%. Also, the inhibition at 1 µM on NTRK1 was 0%; at PIP4K2A, 7%.
For `CC(C)Oc1cc(F)ccc1Nc1ncnc2sc(C(=O)NCC3CCNCC3)nc12` [Example 10, 7-(4-fluoro-2-isopropoxy-anilino)-N-(4-piperidylmethyl)thiazolo[5,4-d]pyrimidine-2-carboxamide], at Full-length human MNK2, the negative logarithm of the IC50 (pIC50) is 7.30. For the same compound, the inhibition at 1 µM at FER amounted to 4%; at ALK, 10%; at YES1, 4%; on PTK2, 16%; on EGFR, 0%; on FGFR1, 1%. Moreover, the values for the inhibition at 1 µM on NTRK1 and on PIP4K2A were 10% and 12%, respectively.
For the compound `CN(C)CCCNC(=O)c1nc2c(N3CCc4cc(F)ccc43)ncnc2s1` [Example 64, N-[3-(dimethylamino)propyl]-7-(5-fluoroindolin-1-yl)thiazolo[5,4-d]pyrimidine-2-carboxamide], the negative logarithm of the IC50 (pIC50) on Full-length human MNK2 is 8.70. Further, the inhibition at 1 µM worked out at 0% at FER; 3% on ALK; 4% at YES1; 0% on PTK2; 5% on EGFR; 2% on FGFR1. The inhibition at 1 µM at NTRK1 worked out at 5%; at PIP4K2A it was 0%.

These data come from US10669284B2, “Fused thiazolopyrimidine derivatives as MNKS inhibitors” (LIFEARC, priority 2015, dated 2020).
